Assay results reported in ChEMBL document CHEMBL1201862, “PubChem BioAssay data set” (2004).
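How tested: cells in 96-well plates exposed to compound for 48 hours at five concentrations. GI50 marks 50% less growth.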 Active and inactive are the calls of the source. Cut-off read from the data, not from the text of the source: active = GI50 up to about 1.1 µM and inactive = higher.

Legend:
Assay in all cases: inhibition of tumour cell growth, NCI panel, 48 h
A549 = test system: A549
COLO 205 = test system: COLO 205
EKVX = test system: EKVX
HCT-116 = test system: HCT-116
HL-60 = test system: HL-60
HOP-92 = test system: HOP-92
Hs-578T = test system: Hs-578T
K562 = test system: K562
LOX IMVI = test system: LOX IMVI
M14 = test system: M14
MCF7 = test system: MCF7
MOLT-4 = test system: MOLT-4
OVCAR-3 = test system: OVCAR-3
OVCAR-5 = test system: OVCAR-5
PC-3 = test system: PC-3
SF-295 = test system: SF-295
SF-268 = test system: SF-268
SNB-19 = test system: SNB-19
SNB-75 = test system: SNB-75
CAKI-1 = test system: CAKI-1

Measured: GI50

COC(=O)CCCc1ccc2c(c1)CC1(C2)Cc2cc3c(cc2C1)CCCC3
inactive: A549 22.1 µM | COLO 205 20.5 µM | EKVX 35.2 µM | HCT-116 3.8 µM | HL-60 12.4 µM | HOP-92 26.1 µM | Hs-578T 29.9 µM | K562 22.9 µM | LOX IMVI 30.3 µM | M14 24.7 µM | MCF7 44.6 µM | MOLT-4 11.6 µM | OVCAR-3 27.5 µM | OVCAR-5 > 100 µM | PC-3 36.8 µM | SF-295 45.7 µM

N#CCCN(CCC#N)c1ccc(/C=C2\N=C(c3ccccc3)N(NC(=O)c3ccncc3)C2=O)cc1
inactive: A549 > 100 µM | COLO 205 > 100 µM | EKVX > 100 µM | HCT-116 > 100 µM | HL-60 36.7 µM | HOP-92 > 100 µM | Hs-578T > 100 µM | K562 49.2 µM | LOX IMVI > 100 µM | M14 > 100 µM | MCF7 > 100 µM | MOLT-4 > 100 µM | OVCAR-3 > 100 µM | OVCAR-5 > 100 µM | PC-3 > 100 µM | SF-268 > 100 µM | SF-295 > 100 µM | SNB-19 > 100 µM

N=C(N)NCCCCCCC(=O)NC(O)C(=O)NCCCCNCCCN (stereo not given)
inactive: A549 473 µM | COLO 205 600 µM | EKVX 643 µM | HCT-116 711 µM | HL-60 > 750 µM | HOP-92 360 µM | Hs-578T 748 µM | K562 551 µM | LOX IMVI 605 µM | M14 > 750 µM | MCF7 745 µM | MOLT-4 659 µM | OVCAR-3 474 µM | OVCAR-5 > 750 µM | PC-3 > 750 µM | SF-268 > 750 µM | SF-295 553 µM | SNB-19 695 µM | SNB-75 335 µM

Nc1ncnc2c1ncn2[C@H]1CC[C@@H](NO)C1
inactive: A549 > 100 µM | CAKI-1 > 100 µM | COLO 205 > 100 µM | EKVX > 100 µM | HCT-116 > 100 µM | HOP-92 > 100 µM | Hs-578T > 100 µM | K562 > 100 µM | LOX IMVI > 100 µM | M14 > 100 µM | MCF7 > 100 µM | MOLT-4 > 100 µM | OVCAR-3 > 100 µM | OVCAR-5 > 100 µM | PC-3 > 100 µM | SF-268 > 100 µM | SF-295 > 100 µM | SNB-19 > 100 µM | SNB-75 > 100 µM

O=C1C(=CNc2ccccc2Cl)C(=O)N(c2ccccc2)C(=O)N1c1ccccc1
inactive: A549 > 100 µM | CAKI-1 > 100 µM | COLO 205 > 100 µM | EKVX > 100 µM | HCT-116 > 100 µM | HOP-92 > 100 µM | Hs-578T 80.4 µM | K562 > 100 µM | LOX IMVI > 100 µM | M14 92.7 µM | MCF7 > 100 µM | MOLT-4 > 100 µM | OVCAR-3 > 100 µM | OVCAR-5 > 100 µM | PC-3 > 100 µM | SF-268 > 100 µM | SF-295 > 100 µM | SNB-19 > 100 µM

Cc1ccc(OCCn2cc(Nc3ccccc3)c(=O)n(CCOc3ccc(C)cc3)c2=O)cc1
inactive: A549 28.8 µM | CAKI-1 > 100 µM | COLO 205 > 100 µM | EKVX > 100 µM | HCT-116 > 100 µM | HOP-92 44.5 µM | Hs-578T 67.6 µM | K562 70.5 µM | LOX IMVI > 100 µM | M14 > 100 µM | MCF7 > 100 µM | MOLT-4 67.1 µM | OVCAR-3 > 100 µM | OVCAR-5 > 100 µM | PC-3 93.5 µM | SF-268 35.6 µM | SF-295 50.2 µM | SNB-19 48.9 µM | SNB-75 > 100 µM

CC(=O)Nc1ccc(NC(=O)CC(=O)Nc2ccc(NC(C)=O)cc2)cc1
inactive: A549 > 100 µM | CAKI-1 > 100 µM | COLO 205 > 100 µM | EKVX > 100 µM | HCT-116 > 100 µM | HL-60 > 100 µM | HOP-92 > 100 µM | Hs-578T > 100 µM | K562 > 100 µM | LOX IMVI > 100 µM | M14 > 100 µM | MCF7 > 100 µM | MOLT-4 > 100 µM | OVCAR-3 > 100 µM | PC-3 > 100 µM | SF-268 > 100 µM | SF-295 > 100 µM | SNB-19 > 100 µM

Cc1ccc(Nc2[nH]c(=O)[nH]c(=O)c2C)cc1Cl
inactive: A549 > 100 µM | CAKI-1 67.3 µM | COLO 205 > 100 µM | EKVX 11 µM | HCT-116 > 100 µM | HOP-92 76 µM | Hs-578T 70 µM | K562 > 100 µM | LOX IMVI > 100 µM | M14 > 100 µM | MCF7 19.5 µM | OVCAR-3 62.1 µM | OVCAR-5 > 100 µM | PC-3 67.9 µM | SF-268 87.7 µM | SF-295 26.2 µM | SNB-19 > 100 µM | SNB-75 29.8 µM
